From patent US20250302904A1, “EXTRACTS IN EUTECTIC SOLVENT OF OLIVE OIL POLYPHENOLS, COMPOSITIONS, USES AND METHODS OF PREPARATION THEREOF” (ACTIVE-ITALIA S.R.L., priority 2022, published 2025)

Legend:
[1] = Stability test of oleocanthal and oleacein in NaDES or water, 30 days; type: physicochemical; conditions: after 30 days, 10 mM
Procedure: Oleocanthal and oleacein were dissolved at a final concentration equal to 10 mM in water or in NaDES (Betaine/Propylene glycol, Bet/Prop) and subjected to stability test.

[2] = Additional stability tests of oleocanthal and oleacein in water or formulated product (NaDES), 6 months; type: physicochemical; conditions: for degradation with respect to control at time zero: formulated product (NaDES betaine/propylene glycol 1:3.3); for degradation: in water
Procedure: FIG. 4. Stability over time (6 months) of oleacein and oleocanthal at 25° C. and 40° C. in water and in the formulated product (serum NaDES diluted in almond oil). The values represent standard averages and deviations (N=3). The significance tests were performed with one-way ANOVA (p<=0.05).
Additional stability tests of oleocanthal and oleacein in water or in NaDES (that is in NaDES mixture comprising betaine/propylene glycol 1:3.3) were performed for 6 months, at different temperatures. The results obtained from the stability tests over time (6 months) of oleacein and oleocanthal, at two different temperatures (25° C. and 40° C. (accelerated stability)), in water and in the formulated product, are shown in FIG. 4. […] In particular, in water, after six months at 25° C., there is a degradation of oleacein and oleocanthal by about 70% and l′80%, respectively. At 40° C. the degradation results to be still more evident: about 90% for oleacein and 80% for oleocanthal. On the contrary, in the product formulated according to the present invention (NaDES betaine/propylene glycol 1:3.3), the degradation of the active principles, with respect to control at time zero, results to be modest at 25° C. and by about 50% and 30% for oleacein and oleocanthal respectively at 40° C.

[3] = NaDES betaine/propylene glycol (1:3.3), 25° C.
[4] = NaDES betaine/propylene glycol (1:3.3), 40° C.

## CC=C(C=O)C(CC=O)CC(=O)OCCc1ccc(O)c(O)c1 (stereo in doubt) [Oleacein]
[1]; H2O, 25° C.
  % loss: 8.1%
[1]; H2O, 40° C.
  % loss: 38.1%
[1]; [3]
  % loss: ~0%
[1]; [4]
  % loss: 4.5%
[2]; six months at 25° C.
  degradation with respect to control at time zero: modest
[2]; six months at 40° C.
  degradation with respect to control at time zero: about 50%
  degradation: about 90%
[2]; after six months at 25° C.
  degradation: about 70%

## C/C=C(/C=O)[C@@H](CC=O)CC(=O)OCCc1ccc(O)cc1 [Oleocanthal]
[1]; H2O, 25° C.
  % loss: 7.5%
[1]; H2O, 40° C.
  % loss: 32.6%
[1]; [3]
  % loss: ~0%
[1]; [4]
  % loss: 1.4%
[2]; six months at 25° C.
  degradation with respect to control at time zero: modest
[2]; six months at 40° C.
  degradation with respect to control at time zero: ~30%
  degradation: ~80%
[2]; after six months at 25° C.
  degradation: ~80%
